Experimental data taken from ChEMBL document CHEMBL5331114, “Discovery of Pyxinol Amide Derivatives Bearing Amino Acid Residues as Nonsubstrate Allosteric Inhibitors of P-Glycoprotein-Mediated Multidrug Resistance” (J Med Chem, 2023).

How the values were obtained:
[1] = Cytotoxicity against human KBV Cells assessed as cell survival rate at 10 uM incubated for 72 hrs by MTT assay; type: functional; details: read-out: Survival
P-gp (ABCB1) ATPase [2] = molecular target: T1, P-gp (ABCB1) ATPase (Homo sapiens, UniProt P08183); experiment: Negative allosteric modulator activity at human P-gp ATP synthase hydrolytic activity assessed as inhibition of basal Pgp-ATPase activity at 25 uM incubated for 60 mins in presence of ATP by Glo-luminescence based microplate reader assay relative to DMSO
T1 sequence (P08183 whole entry): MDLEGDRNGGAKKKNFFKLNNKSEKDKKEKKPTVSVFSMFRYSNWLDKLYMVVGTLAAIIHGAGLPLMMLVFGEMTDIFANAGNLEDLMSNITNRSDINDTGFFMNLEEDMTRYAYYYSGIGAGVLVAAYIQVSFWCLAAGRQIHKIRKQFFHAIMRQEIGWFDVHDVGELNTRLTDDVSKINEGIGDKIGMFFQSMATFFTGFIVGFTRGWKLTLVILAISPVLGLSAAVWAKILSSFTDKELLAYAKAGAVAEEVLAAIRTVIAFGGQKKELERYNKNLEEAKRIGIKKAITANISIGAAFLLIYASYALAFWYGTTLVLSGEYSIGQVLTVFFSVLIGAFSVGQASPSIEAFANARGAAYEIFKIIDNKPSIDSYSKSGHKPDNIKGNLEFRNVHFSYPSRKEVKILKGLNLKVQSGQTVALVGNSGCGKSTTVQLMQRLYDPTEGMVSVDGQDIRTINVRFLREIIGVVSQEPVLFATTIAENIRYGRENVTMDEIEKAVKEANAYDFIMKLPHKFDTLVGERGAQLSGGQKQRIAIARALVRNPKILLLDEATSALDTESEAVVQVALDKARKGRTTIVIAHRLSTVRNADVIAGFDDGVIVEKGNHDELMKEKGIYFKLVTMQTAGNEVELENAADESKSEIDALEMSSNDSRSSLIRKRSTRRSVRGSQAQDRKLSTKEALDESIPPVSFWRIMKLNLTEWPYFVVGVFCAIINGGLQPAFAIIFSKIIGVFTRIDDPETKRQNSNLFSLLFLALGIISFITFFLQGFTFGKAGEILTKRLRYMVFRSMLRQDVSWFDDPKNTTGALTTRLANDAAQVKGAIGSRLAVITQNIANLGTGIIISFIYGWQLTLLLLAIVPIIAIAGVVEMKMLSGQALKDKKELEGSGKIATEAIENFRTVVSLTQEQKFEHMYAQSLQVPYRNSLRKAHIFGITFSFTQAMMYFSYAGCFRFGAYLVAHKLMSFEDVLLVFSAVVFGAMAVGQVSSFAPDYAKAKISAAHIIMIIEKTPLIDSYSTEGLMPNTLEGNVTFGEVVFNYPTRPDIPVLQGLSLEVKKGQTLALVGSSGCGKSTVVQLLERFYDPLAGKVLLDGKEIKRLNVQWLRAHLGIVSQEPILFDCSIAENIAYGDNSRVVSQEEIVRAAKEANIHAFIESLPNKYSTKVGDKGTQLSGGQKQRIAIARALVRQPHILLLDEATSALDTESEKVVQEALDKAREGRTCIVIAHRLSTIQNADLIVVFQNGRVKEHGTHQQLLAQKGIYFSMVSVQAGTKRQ

[3] = Induction of Ptx-mediated cell cycle arrest in human KBV cells assessed as accumulation of cells at Sub-G1 phase at 5 uM incubated for 24 hrs in presence of paclitaxel by flow cytometry analysis (reference value: 1.21 +/- 0.3%); type: functional
[4] = Induction of cell cycle arrest in human KBV cells assessed as accumulation of cells at G1-G0 phase at 5 uM incubated for 24 hrs by flow cytometry analysis (reference value: 62.34 +/- 0.24%); type: functional
[5] = molecular target: T2, ATP-dependent translocase ABCB1 (Homo sapiens, UniProt P08183); experiment: Binding affinity to P-glycoprotein in human KBV cells assessed as stabilization of P-glycoprotein at 50 uM incubated for 26 hrs by western blot based cellular thermal shift assay; type: cell-based
T2 sequence (P08183 whole entry): as above

[6] = Induction of Ptx-mediated cell cycle arrest in human KBV cells assessed as accumulation of cells at G2-M phase at 5 uM incubated for 24 hrs in presence of paclitaxel by flow cytometry analysis (Rvb =25.34 +/- 0.92%); type: functional
P-gp (ABCB1) ATPase [7] = molecular target: T1, P-gp (ABCB1) ATPase; experiment: Negative allosteric modulator activity at human P-gp ATP synthase hydrolytic activity assessed as inhibition of Vrp-stimulated Pgp-ATPase activity at 25 uM incubated for 60 mins in presence of ATP by Glo-luminescence based microplate reader assay relative to DMSO; details: probe Vrp (stimulator of the ATPase activity)
[8] = molecular target: T2, ATP-dependent translocase ABCB1; experiment: Negative allosteric modulator activity at P-glycoprotein mediated Rhodamine-123 efflux in human KBV cells assessed as increase in intracellular Rhodamine-123 accumulation at 10 uM incubated for 2 hrs in presence of Ptx-C by flow cytometry analysis; type: cell-based
[9] = Reversal of multidrug resistance in human KBV Cells assessed as increase in PTX-induced cytotoxicity by measuring cell survival rate at 5 uM incubated for 72 hrs in presence of paclitaxel by MTT assay relative to control; type: functional; details: read-out: Survival
[10] = Induction of cell cycle arrest in human KBV cells assessed as accumulation of cells at G2-M phase at 5 uM incubated for 24 hrs by flow cytometry analysis (reference value: 24.94 +/- 0.21%); type: functional
P-gp (ABCB1) ATPase [11] = molecular target: T1, P-gp (ABCB1) ATPase; experiment: Negative allosteric modulator activity at human P-gp ATP synthase hydrolytic activity assessed as inhibition of Vrp-stimulated Pgp-ATPase activity incubated for 60 mins in presence of ATP by Glo-luminescence based microplate reader assay relative to DMSO; details: probe Vrp (stimulator of the ATPase activity)
[12] = molecular target: T2, ATP-dependent translocase ABCB1; experiment: Negative allosteric modulator activity at human P-gp ATP synthase hydrolytic activity assessed as inhibition of basal Pgp-ATPase activity at 0.5 mM incubated for 60 mins in presence of ATP by Glo-luminescence based microplate reader assay; details: 1 h, 500 µM
[13] = Induction of cell cycle arrest in human KBV cells assessed as accumulation of cells at Sub-G1 phase at 5 uM incubated for 24 hrs by flow cytometry analysis (reference value: 1.24 +/- 0.14%); type: functional
[14] = Drug accumulation in human KBV cells at 10 uM incubated for 4 hrs by LC-MS/MS analysis; type: ADME, cell-based
[15] = Induction of Ptx-mediated cell cycle arrest in human KBV cells assessed as accumulation of cells at S phase at 10 uM incubated for 24 hrs in presence of paclitaxel by flow cytometry analysis (Rvb =16.63 +/- 0.4%); type: functional
[16] = Induction of cell cycle arrest in human KBV cells assessed as accumulation of cells at S phase at 10 uM incubated for 24 hrs by flow cytometry analysis (reference value: 12.42 +/- 0.41%); type: functional
[17] = Toxicity against BALB/c mouse xenografted with Ptx-resistance human KBV cells at 20 mg/kg,ip measured after 23 days; type: organism-based; details: in vivo, 552 h, time 23 day
[18] = Induction of Ptx-mediated cell cycle arrest in human KBV cells assessed as accumulation of cells at G1-G0 phase at 5 uM incubated for 24 hrs in presence of paclitaxel by flow cytometry analysis (Rvb =57.76 +/- 0.78%); type: functional
[19] = Induction of cell cycle arrest in human KBV cells assessed as accumulation of cells at S phase at 5 uM incubated for 24 hrs by flow cytometry analysis (reference value: 12.42 +/- 0.41%); type: functional
[20] = Induction of cell cycle arrest in human KBV cells assessed as accumulation of cells at G1-G0 phase at 10 uM incubated for 24 hrs by flow cytometry analysis (reference value: 62.34 +/- 0.24%); type: functional
[21] = Reversal of multidrug resistance in human KBV Cells assessed as reversal fold of paclitaxel IC50 at 10 uM incubated for 72 hrs in presence of paclitaxel by MTT assay; type: functional
[22] = Induction of cell cycle arrest in human KBV cells assessed as accumulation of cells at G2-M phase at 10 uM incubated for 24 hrs by flow cytometry analysis (reference value: 24.94 +/- 0.21%); type: functional
[23] = molecular target: T2, ATP-dependent translocase ABCB1; experiment: Negative allosteric modulator activity at human P-gp ATP synthase hydrolytic activity assessed as inhibition of basal Pgp-ATPase activity at 1 mM incubated for 60 mins in presence of ATP by Glo-luminescence based microplate reader assay; details: 1 h, 1000 µM
[24] = Induction of Ptx-mediated cell cycle arrest in human KBV cells assessed as accumulation of cells at G2-M phase at 10 uM incubated for 24 hrs in presence of paclitaxel by flow cytometry analysis (Rvb =25.34 +/- 0.92%); type: functional
[25] = Induction of Ptx-mediated cell cycle arrest in human KBV cells assessed as accumulation of cells at S phase at 5 uM incubated for 24 hrs in presence of paclitaxel by flow cytometry analysis (Rvb =16.63 +/- 0.4%); type: functional
[26] = molecular target: T2, ATP-dependent translocase ABCB1; experiment: Negative allosteric modulator activity at P-glycoprotein in human KBV cells assessed as effect on P-gp protein localization at 10 uM incubated for 48 hrs by immunofluorescence analysis; type: cell-based
P-gp (ABCB1) ATPase [27] = molecular target: T1, P-gp (ABCB1) ATPase; experiment: Negative allosteric modulator activity at human P-gp ATP synthase hydrolytic activity assessed as inhibition of basal Pgp-ATPase activity incubated for 60 mins in presence of ATP by Glo-luminescence based microplate reader assay relative to DMSO
[28] = Induction of Ptx-mediated cell cycle arrest in human KBV cells assessed as accumulation of cells at G1-G0 phase at 10 uM incubated for 24 hrs in presence of paclitaxel by flow cytometry analysis (Rvb =57.76 +/- 0.78%); type: functional
[29] = Drug accumulation in human KB cells at 10 uM incubated for 4 hrs by LC-MS/MS analysis; type: ADME, cell-based
[30] = molecular target: Multidrug resistance-associated protein 1 (Homo sapiens, UniProt P33527); experiment: Binding affinity to ABCC1 in human KBV cells assessed as stabilization of ABCC1 at 50 uM incubated for 26 hrs by western blot based cellular thermal shift assay; type: cell-based
Sequence of Multidrug resistance-associated protein 1 (P33527 whole entry): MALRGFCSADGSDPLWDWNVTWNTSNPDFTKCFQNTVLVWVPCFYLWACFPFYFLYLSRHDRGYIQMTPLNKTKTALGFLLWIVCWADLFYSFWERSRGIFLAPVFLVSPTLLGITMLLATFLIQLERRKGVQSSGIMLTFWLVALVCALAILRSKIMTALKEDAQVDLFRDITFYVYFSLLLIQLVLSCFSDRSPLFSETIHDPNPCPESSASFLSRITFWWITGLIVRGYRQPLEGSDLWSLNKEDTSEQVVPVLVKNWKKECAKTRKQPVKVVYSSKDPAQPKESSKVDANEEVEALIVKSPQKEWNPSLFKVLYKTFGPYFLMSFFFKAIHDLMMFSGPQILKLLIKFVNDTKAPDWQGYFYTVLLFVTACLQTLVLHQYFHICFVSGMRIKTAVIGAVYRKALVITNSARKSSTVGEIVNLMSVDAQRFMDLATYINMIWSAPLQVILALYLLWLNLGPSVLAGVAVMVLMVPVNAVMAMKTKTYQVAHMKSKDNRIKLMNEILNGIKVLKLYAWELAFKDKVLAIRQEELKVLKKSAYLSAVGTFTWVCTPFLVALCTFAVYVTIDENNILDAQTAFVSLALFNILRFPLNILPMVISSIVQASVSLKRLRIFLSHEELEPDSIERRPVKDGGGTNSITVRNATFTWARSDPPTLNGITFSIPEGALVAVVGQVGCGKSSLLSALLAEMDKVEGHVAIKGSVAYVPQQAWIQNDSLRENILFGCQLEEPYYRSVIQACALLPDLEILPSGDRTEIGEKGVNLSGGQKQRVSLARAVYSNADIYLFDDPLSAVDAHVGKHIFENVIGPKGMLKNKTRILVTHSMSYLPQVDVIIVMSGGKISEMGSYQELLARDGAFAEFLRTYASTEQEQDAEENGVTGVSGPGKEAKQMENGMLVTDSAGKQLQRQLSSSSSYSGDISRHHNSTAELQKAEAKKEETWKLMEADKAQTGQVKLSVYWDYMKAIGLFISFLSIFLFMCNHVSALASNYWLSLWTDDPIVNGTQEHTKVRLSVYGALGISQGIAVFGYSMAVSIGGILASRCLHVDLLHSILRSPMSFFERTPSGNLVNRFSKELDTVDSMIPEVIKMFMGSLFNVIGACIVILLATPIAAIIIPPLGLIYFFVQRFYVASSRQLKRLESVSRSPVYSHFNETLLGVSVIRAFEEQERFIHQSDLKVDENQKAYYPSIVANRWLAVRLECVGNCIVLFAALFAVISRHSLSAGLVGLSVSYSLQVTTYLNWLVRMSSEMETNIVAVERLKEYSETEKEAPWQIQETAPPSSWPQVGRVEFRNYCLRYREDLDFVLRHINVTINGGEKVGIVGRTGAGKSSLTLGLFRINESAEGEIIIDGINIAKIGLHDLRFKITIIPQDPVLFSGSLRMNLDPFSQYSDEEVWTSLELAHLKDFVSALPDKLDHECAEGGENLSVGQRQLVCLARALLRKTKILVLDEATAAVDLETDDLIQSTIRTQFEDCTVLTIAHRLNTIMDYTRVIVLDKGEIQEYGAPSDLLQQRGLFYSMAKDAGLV

CC(C)(O)[C@H]1CC[C@@](C)([C@H]2CC[C@]3(C)[C@@H]2[C@H](O)C[C@@H]2[C@@]4(C)CC[C@H](NC(=O)[C@@H]5CCCN5)C(C)(C)[C@@H]4CC[C@]23C)O1
viability at 10 µM [1]: 123%
inhibition at 1 h, 25 µM (P-gp (ABCB1) ATPase [2]): 87%
Activity [3]: 11.4%
Activity [4]: 59.58%
Activity [5]: Active
Activity [6]: 31.28%
inhibition at 1 h, 25 µM (P-gp (ABCB1) ATPase [7]): 60%
Activity [8]: Not Active
viability at 5 µM [9]: 34%
Activity [10]: 27.12%
inhibition at 1 h (P-gp (ABCB1) ATPase [11]): 40%
inhibition (INH) [12]: Not Active
Activity [13]: 0.58%
Drug uptake [14]: Active
Activity [15]: 20.53%
Activity [16]: 13.74%
Activity [17]: Non-Toxic
Activity [18]: 45.93%
Activity [19]: 13.38%
Activity [20]: 60.47%
fold change (FC) [21]: 67
Activity [22]: 25.93%
inhibition (INH) [23]: Not Active
Activity [24]: 42.21%
Activity [25]: 22%
Activity [26]: Not Active
inhibition at 1 h (P-gp (ABCB1) ATPase [27]): 13%
Activity [28]: 36.65%
Drug uptake [29]: Active
Activity [30]: Not Active
